These are literature values, as cited in patent publication US9005898B2, “Method for controlling hair growth, method for selecting or evaluating hair growth control agent, and hair growth suppression agent” (Kao Corporation, priority 2010, dated 2015).

In the data set the test system is human hair follicle. Particulars: in a dose-dependent manner; Patent Document 7.

As to `O=CN1CC/C(=C\c2ccc3c(c2)OCO3)C1=O` [KNK437], the “growth of the human hair follicle” value was “reduced”.
